Measurements taken from paper PMC3702004, “Comparison of Intake and Systemic Relative Effect Potencies of Dioxin-like Compounds in Female Mice after a Single Oral Dose” (Environmental Health Perspectives, 2013).
Read-outs that look alike come from different tables or passages of the source.

Key:
[1] = toxic equivalency factor relative to TCDD; ref Van den Berg et al. 2006; cited from earlier work
[2] = Body and organ weight, hepatic lipid content; format: in vivo, female C57BL/6 mice; conditions: day 3; for % lipid / g liver: pooled liver samples
Method: (§1) Animals. Eight-week-old female C57BL/6 mice (Harlan laboratories, Venray, the Netherlands) were randomly assigned to treatment groups (six animals per group) and allowed to acclimate for 1.5 weeks. The animals were housed in groups in standard cages and conditions (23 ± 2°C, 50–60% relative humidity, 12-hr dark/light cycle) with free access to food and water. Mice received a single dose of test compound by oral gavage at a dosing volume of 10 mL/kg body weight (BW). Mice treated with corn oil vehicle (10 mL/kg BW) served as controls. For each congener, five different doses were administered, ranging from 0.5–100 μg/kg BW (TCDD) to 5,000–500,000 µg/kg BW (PCB-153). Detailed information on doses is provided in Supplemental Material, Table S1 (http://dx.doi.org/10.1289/ehp.1206336). On day 3 after dosing, animals were euthanized by CO2/O2 asphyxiation, and blood was immediately collected from the abdominal aorta. The liver, thymus, spleen, and adipose tissue were removed, weighed (liver, thymus, and spleen), snap frozen, and stored at –80°C. All animal treatments were performed with permission of the Animal Ethical Committee (DEC Utrecht) and performed according to the [Law on Animal Experiments (1977)]. Animals were treated humanely and with regard for alleviation of suffering.
(§2) Compound analysis. Adipose and liver tissues samples were homogenized in Na2SO4, followed by extraction and clean-up in one step, and then eluted with 200 mL 1:1 hexane:dichloromethane on an open column packed with 40% wt/wt H2SO4-impregnated silica and KOH-silica. Blood plasma samples were extracted on an open column using Chem-Elut (Agilent Technologies, Santa Clara, CA, USA) and then NaCl eluted with 75 mL 3:2 hexane:2-propanol. Clean-up was performed using a miniaturized silica column (as described above), and samples were eluted using 30 mL hexane. Because the samples typically contained high levels of the analytes, only a small fraction was evaporated and analyzed. Prior to evaporation, we spiked a fraction of the samples with ^13C-labeled standards. We checked potential loss of analytes during extraction and clean-up by reextracting the samples using the identical protocol used for the samples. […] Tetradecane was added prior to evaporation. Sample analysis followed the U.S. Environmental Protection Agency Method 1613 ([U.S. Environmental Protection Agency 1994]) using single ion monitoring mode on an Agilent 6809N gas chromatograph (Agilent Technologies) coupled with a Micromass Ultima Autospec Ultra high-resolution mass spectrometer (HRMS; Waters Corp., Milford, MA, USA). Compounds were separated on a 60 m × 0.25 mm DB5-MS column ([…]; J&W Scientific, Folsom, CA, USA). The HRMS was operated with electron impact ionization with electron energy of 35 eV and an ion source temperature of 250°C. To reduce the number of analyses, samples were pooled before clean-up. […] This method was used because full congener–specific separation could be achieved on the high-resolution GC–HRMS. For lipid determination, samples were evaporated to dryness after the extraction step, and the amount of lipids was determined gravimetrically. Concentrations were calculated based on lipid weight and wet weight. The analysis of samples for the PCB-118 5,000 μg/kg BW dose failed during the procedure; thus analysis for this group could not be completed.
Statistical analysis. Statistical significant differences of the means and variances were determined using one-way analysis of variance (ANOVA) followed by Tukey-Kramer multiple comparisons. Differences were considered statistically significant at p < 0.05. Statistical calculations were performed using GraphPad 6.01 (GraphPad Software Inc.).

[3] = Compound analysis: liver, adipose and plasma concentrations 3 days after a single oral dose; format: in vivo, female C57BL/6 mice; conditions: for Liver:adipose ratio: based on ng/g tissue, day 3; for concentration at 3 days: female, C57BL/6, mouse, in vivo, po
Method: as §1, §2
Plasma and PBL isolation. Blood from two mice was pooled (total volume of approximately 1.4 mL); plasma and PBLs were then isolated using Ficoll Paque gradient (GE Healthcare Europe, Diegem, Belgium). Plasma samples were stored at –80°C until compound analysis. Isolated lymphocytes were lysed with RLT buffer (QIAGEN, Venlo, the Netherlands) as described in the QIAGEN RNAeasy kit protocol and stored at –80°C until use.

[4] = oral dose 0.5 µg/kg bw, 3 days after single oral dose
[5] = oral dose 2.5 µg/kg bw, 3 days after single oral dose
[6] = oral dose 10 µg/kg bw, 3 days after single oral dose
[7] = oral dose 25 µg/kg bw, 3 days after single oral dose
[8] = oral dose 100 µg/kg bw, 3 days after single oral dose

Q: Which WHO-TEF [1] does the source give for `Clc1cc2c(cc1Cl)Oc1cc(Cl)c(Cl)cc1O2` [TCDD, 2,3,7,8-tetrachlorodibenzodioxin, reference compound] here?
A: The WHO-TEF was 1.

Q: And the Body weight ([2]; oral dose 0.5 µg/kg bw)?
A: The Body weight was 19.3 ± 0.8 gram.

Q: What about the Liver weight ([2]; oral dose 0.5 µg/kg bw) of the same compound?
A: Its Liver weight is 5.08 ± 0.27 % of bw.

Q: And the Spleen weight ([2]; oral dose 0.5 µg/kg bw)?
A: The Spleen weight was 0.34 ± 0.05 % of bw.

Q: And the Thymus weight ([2]; oral dose 0.5 µg/kg bw)?
A: Its Thymus weight is 0.28 ± 0.06 % of bw.

Q: And the “% lipid / g liver” value ([2]; oral dose 0.5 µg/kg bw)?
A: The value was 5.3%.

Q: What about the Body weight ([2]; oral dose 2.5 µg/kg bw) of the same compound?
A: The Body weight was 19.2 ± 1.3 gram.

Q: And the Liver weight ([2]; oral dose 2.5 µg/kg bw)?
A: Its Liver weight is 5.37 ± 0.20 % of bw.

Q: What about the Spleen weight ([2]; oral dose 2.5 µg/kg bw) of the same compound?
A: The Spleen weight was 0.32 ± 0.05 % of bw.

Q: And the Thymus weight ([2]; oral dose 2.5 µg/kg bw)?
A: Its Thymus weight is 0.23 ± 0.05 % of bw.

Q: What about the “% lipid / g liver” value ([2]; oral dose 2.5 µg/kg bw) of the same compound?
A: The value was 7.2%.

Q: What about the Body weight ([2]; oral dose 10 µg/kg bw) of the same compound?
A: Its Body weight is 18.8 ± 1.1 gram.

Q: What about the Liver weight ([2]; oral dose 10 µg/kg bw) of the same compound?
A: Its Liver weight is 5.49 ± 0.37 % of bw.

Q: What about the Spleen weight ([2]; oral dose 10 µg/kg bw) of the same compound?
A: The Spleen weight was 0.30 ± 0.04 % of bw.

Q: What about the Thymus weight ([2]; oral dose 10 µg/kg bw) of the same compound?
A: The Thymus weight was 0.18 ± 0.06 % of bw.

Q: What about the “% lipid / g liver” value ([2]; oral dose 10 µg/kg bw) of the same compound?
A: Its value is 7.4%.

Q: And the Body weight ([2]; oral dose 25 µg/kg bw)?
A: Its Body weight is 19.6 ± 0.8 gram.

Q: What about the Liver weight ([2]; oral dose 25 µg/kg bw) of the same compound?
A: The Liver weight was 5.86 ± 0.22 % of bw.

Q: What about the Spleen weight ([2]; oral dose 25 µg/kg bw) of the same compound?
A: The Spleen weight was 0.34 ± 0.02 % of bw.

Q: What about the Thymus weight ([2]; oral dose 25 µg/kg bw) of the same compound?
A: The Thymus weight was 0.23 ± 0.02 % of bw.

Q: What about the Body weight ([2]; oral dose 100 µg/kg bw) of the same compound?
A: The Body weight was 19.4 ± 0.6 gram.

Q: What about the Liver weight ([2]; oral dose 100 µg/kg bw) of the same compound?
A: The Liver weight was 6.09 ± 0.44 % of bw.

Q: What about the Spleen weight ([2]; oral dose 100 µg/kg bw) of the same compound?
A: Its Spleen weight is 0.34 ± 0.02 % of bw.

Q: And the Thymus weight ([2]; oral dose 100 µg/kg bw)?
A: The Thymus weight was 0.19 ± 0.04 % of bw.

Q: What about the “Dose with significant increase in liver weight vs vehicle controls” value ([2]; single oral dose) of the same compound?
A: The value was no less than 10 µg/kg BW.

Q: And the “Dose with statistically significant decrease in relative thymus weight vs vehicle controls” value ([2]; single oral dose)?
A: The value was no less than 2.5 μg/kg BW.

Q: What about the “liver:adipose ratio (hepatic sequestration criterion 0.3)” value ([3]; 3 days after single oral dose, Table 1 doses) of the same compound?
A: The value was greater than 0.3.

Q: And the “Liver:adipose ratio” value ([3]; dose 0.5 μg/kg BW)?
A: The value was 1.8±0.2.

Q: And the “Liver:adipose ratio” value ([3]; dose 2.5 μg/kg BW)?
A: Its value is 2.9±0.5.

Q: What about the “Liver:adipose ratio” value ([3]; dose 10 μg/kg BW) of the same compound?
A: Its value is 4.2±0.7.

Q: And the concentration at 3 days ([3]; 0.5 µg/kg bw, oral dose 0.5 µg/kg bw, 3 days after single oral dose, read-out: Adipose concentration)?
A: Its concentration at 3 days is 1.8 ± 0.4 ng/g.

Q: What about the concentration at 3 days ([3]; 0.5 µg/kg bw, oral dose 0.5 µg/kg bw, 3 days after single oral dose, read-out: Liver concentration) of the same compound?
A: The concentration at 3 days was 3.3 ± 0.6 ng/g.

Q: What about the concentration at 3 days ([3]; 2.5 µg/kg bw, oral dose 2.5 µg/kg bw, 3 days after single oral dose, read-out: Adipose concentration) of the same compound?
A: The concentration at 3 days was 6.9 ± 1.5 ng/g.

Q: What about the concentration at 3 days ([3]; 2.5 µg/kg bw, oral dose 2.5 µg/kg bw, 3 days after single oral dose, read-out: Liver concentration) of the same compound?
A: Its concentration at 3 days is 20 ± 6 ng/g.

Q: What about the concentration at 3 days ([3]; 10 µg/kg bw, oral dose 10 µg/kg bw, 3 days after single oral dose, read-out: Adipose concentration) of the same compound?
A: The concentration at 3 days was 21 ± 3 ng/g.

Q: What about the concentration at 3 days ([3]; 10 µg/kg bw, oral dose 10 µg/kg bw, 3 days after single oral dose, read-out: Liver concentration) of the same compound?
A: The concentration at 3 days was 85 ± 13 ng/g.

Q: What about the concentration at 3 days ([3]; 10 µg/kg bw, oral dose 10 µg/kg bw, 3 days after single oral dose, read-out: Plasma concentration) of the same compound?
A: The concentration at 3 days was 0.053 ng/g.

Q: What about the concentration at 3 days ([3]; 25 µg/kg bw, oral dose 25 µg/kg bw, 3 days after single oral dose, read-out: Plasma concentration) of the same compound?
A: Its concentration at 3 days is 0.108 ng/g.

Q: And the concentration at 3 days ([3]; 100 µg/kg bw, oral dose 100 µg/kg bw, 3 days after single oral dose, read-out: Plasma concentration)?
A: Its concentration at 3 days is 0.432 ng/g.

Q: What about the “Adipose % dose / g tissue” value [3, 4] of the same compound?
A: Its value is 18 % dose / g tissue.

Q: And the Adipose concentration [3, 4]?
A: The Adipose concentration was 2.1 ± 0.5 ng/g lipid.

Q: What about the “Liver % dose / g tissue” value [3, 4] of the same compound?
A: Its value is 33 % dose / g tissue.

Q: What about the Liver concentration [3, 4] of the same compound?
A: Its Liver concentration is 62 ± 12 ng/g lipid.

Q: And the “Plasma % dose / g tissue” value [3, 4]?
A: Its value is 0.040 % dose / g tissue.

Q: What about the “Adipose % dose / g tissue” value [3, 5] of the same compound?
A: Its value is 14 % dose / g tissue.

Q: What about the Adipose concentration [3, 5] of the same compound?
A: Its Adipose concentration is 7.6 ± 1.7 ng/g lipid.

Q: What about the “Liver % dose / g tissue” value [3, 5] of the same compound?
A: Its value is 40 % dose / g tissue.

Q: What about the Liver concentration [3, 5] of the same compound?
A: The Liver concentration was 277 ± 83 ng/g lipid.

Q: What about the “Plasma % dose / g tissue” value [3, 5] of the same compound?
A: Its value is 0.027 % dose / g tissue.

Q: What about the “Adipose % dose / g tissue” value [3, 6] of the same compound?
A: Its value is 10 % dose / g tissue.

Q: What about the Adipose concentration [3, 6] of the same compound?
A: Its Adipose concentration is 24 ± 4 ng/g lipid.

Q: And the “Liver % dose / g tissue” value [3, 6]?
A: Its value is 43 % dose / g tissue.

Q: And the Liver concentration [3, 6]?
A: The Liver concentration was 1152 ± 176 ng/g lipid.

Q: What about the “Plasma % dose / g tissue” value [3, 6] of the same compound?
A: Its value is 0.027 % dose / g tissue.

Q: And the Plasma concentration [3, 6]?
A: Its Plasma concentration is 35 ± 6 ng/g lipid.

Q: What about the “Plasma % dose / g tissue” value [3, 7] of the same compound?
A: The value was 0.022 % dose / g tissue.

Q: What about the Plasma concentration [3, 7] of the same compound?
A: Its Plasma concentration is 60 ± 3 ng/g lipid.

Q: What about the “Plasma % dose / g tissue” value [3, 8] of the same compound?
A: The value was 0.022 % dose / g tissue.

Q: What about the Plasma concentration [3, 8] of the same compound?
A: Its Plasma concentration is 240 ± 30 ng/g lipid.
